In article PMC11195807, “Development of a multi-targeted chemotherapeutic approach based on G-quadruplex stabilisation and carbonic anhydrase inhibition” (Journal of Enzyme Inhibition and Medicinal Chemistry, 2024):

How the values were obtained:
Tel23 = experiment: CD melting experiments, Tel23 GQ; assay type: binding, human; conditions: for ΔT1/2 Tel23: 2 molar equiv compound, T1/2 of DNA alone 53.5 °C; for ΔΔT1/2 Tel23: ΔT1/2 of compound minus ΔT1/2 of berberine, 2 molar equiv
Excerpt: (§1) The 21 synthesised MTDLs were screened for their ability to bind to and stabilise DNA GQ-forming sequences, compared to berberine, by CD experiments. Indeed, circular dichroism has shown to be outstandingly useful and informative for noncanonical nucleic acid secondary structures. For this purpose, a G-rich 23-nucleotide truncation (23-nt) of the human telomeric sequence (Tel23) and two G-rich motifs from the promoter regions of c-KIT (c-Kit1) and c-MYC (c-Myc) oncogenes were employed. First, the overall topology adopted by each DNA sequence in K^+-containing buffer was verified by CD spectra. […] GQ conformation (Figure S1, Supporting Information). On the other hand, c-Kit1 and c-Myc sequences adopted a parallel GQ conformation, showing a distinctive positive band at around 260 nm and a negative one at ∼240 nm in their CD spectra (Figures S2 and S3, Supporting Information).
(§2) Afterwards, the GQ-stabilising properties of the molecules were assessed by CD melting experiments, measuring the differences in the apparent melting temperatures of the DNA in the presence and absence of compounds (ΔT1/2) (Figures S4–S6 and Table S2, Supporting Information). […] This could be explained by considering the higher accessibility of the external G-tetrads in the case of parallel GQs compared to the hybrid one[52], which would allow the additional CAI moiety of conjugated compounds to be better accommodated in the binding site. […] . […] .

Hairpin = experiment: CD melting experiments, hairpin DNA duplex; conditions: 2 molar equiv compound, T1/2 of DNA alone 66.0 °C
Procedure: To evaluate the possible binding and stabilisation of double-stranded DNA, a 27-nt long hairpin-forming sequence (Hairpin) was employed.
In particular, the following DNA sequences were synthesised and employed for the experiments: d([sequence]) (c-Kit1), d([sequence]) (c-Myc), d([sequence]) (Tel23), and d([sequence]) (Hairpin). Oligonucleotides were dissolved in the proper buffer and their concentration was measured by UV absorption at 90 °C, as previously reported[80]^,[81]. To achieve the correct folding of the sequences, the DNA solutions were heated in a water bath at 90 °C for 5 min, and then allowed to cool slowly to room temperature overnight. Then, DNA samples were stored at 4 °C for 24 h, before data acquisition.
The samples were prepared by dissolving the oligonucleotides in 5 mM KH2PO4/K2HPO4 buffer (pH 7.0) containing 20 mM KCl (or LiCl in the case of c-Myc because of its high thermal stability). DNA concentrations of 20 µM for GQs and 30 µM for Hairpin were used. For each compound, a 10 mM stock solution in 100% DMSO was prepared. […] CD spectra were acquired at 20 and 100 °C, in the 230–320 nm wavelength range, averaged over three scans and subtracted of the buffer baseline. The scanning speed was set to 100 nm/min, with a 0.5 s response time, and 1 nm bandwidth. CD melting experiments were carried out in the 20–100 °C temperature range, with 1 °C/min heating rate, by following changes in the CD signal at the wavelengths of the maximum CD intensity (i.e. 263 nm for c-Kit1 and c-Myc, and 290 nm for Tel23). As for Hairpin, CD melting curves were recorded by following the changes in the CD signal at 252 nm (the wavelength of the minimum CD intensity). CD melting curves were normalised between 0 and 1. […] The ΔT1/2 values correspond to the difference in the T1/2 values of the nucleic acid structures in the presence and absence of the compounds. All experiments were performed in duplicate, and the reported values are the mean of the two measurements.

c-Kit1 = experiment: CD melting experiments, c-Kit1 GQ; assay type: binding; conditions: for ΔT1/2 c-Kit1: 2 molar equiv compound, T1/2 of DNA alone 55.0 °C; for ΔΔT1/2 c-Kit1: ΔT1/2 of compound minus ΔT1/2 of berberine, 2 molar equiv
Excerpt: as §1, §2

hCA II = biological target: T1, hCA II (Homo sapiens, UniProt P00918); experiment: stopped-flow CO2 hydrase assay, hCA II; assay type: biochemical
T1 construct: made in house
Excerpt: . The structure-activity relationship is discussed separately for the two compound subsets. Another code pattern is included for the MTDLs in Table 1, which indicates the derivative CAI type (sulphonamide, S or coumarin, C) and the number of atoms in the spacers connecting either berberine and the triazole (carbon atoms) or the triazole and the benzenesulfonamide/coumarin scaffolds (carbon or oxygen atoms).
(§3) An Applied Photophysics stopped-flow instrument has been used for assaying the CA-catalysed CO2 hydration activity, as reported earlier. The enzyme concentrations were in the range 5–12 nM. All hCA isoforms were recombinant proteins, being obtained in-house as reported earlier.

c-Myc = experiment: CD melting experiments, c-Myc GQ; assay type: binding; conditions: for ΔT1/2 c-Myc: 1 molar equiv compound, T1/2 of DNA alone 70.0 °C; for ΔΔT1/2 c-Myc: ΔT1/2 of compound minus ΔT1/2 of berberine, 1 molar equiv
Excerpt: as §1, §2

hCA IX = biological target: T2, hCA IX (Homo sapiens, UniProt Q16790); experiment: stopped-flow CO2 hydrase assay, hCA IX; assay type: biochemical; conditions: for Selectivity index (SI) I/IX: hCA IX over hCA I; for Selectivity index (SI) II/IX: hCA IX over hCA II; for Ki: mean ± SEM of three assays
T2 construct: made in house
Excerpt: (§4) An Applied Photophysics stopped-flow instrument has been used for assaying the CA-catalysed CO2 hydration activity, as reported earlier. […] All hCA isoforms were recombinant proteins, being obtained in-house as reported earlier.

hCA XII = biological target: T3, hCA XII (Homo sapiens, UniProt O43570); experiment: stopped-flow CO2 hydrase assay, hCA XII; assay type: biochemical; conditions: for Selectivity index (SI) I/XII: hCA XII over hCA I; for Selectivity index (SI) II/XII: hCA XII over hCA II; for Ki: mean ± SEM of three assays
T3 construct: made in house
T3 sequence (O43570 25-354): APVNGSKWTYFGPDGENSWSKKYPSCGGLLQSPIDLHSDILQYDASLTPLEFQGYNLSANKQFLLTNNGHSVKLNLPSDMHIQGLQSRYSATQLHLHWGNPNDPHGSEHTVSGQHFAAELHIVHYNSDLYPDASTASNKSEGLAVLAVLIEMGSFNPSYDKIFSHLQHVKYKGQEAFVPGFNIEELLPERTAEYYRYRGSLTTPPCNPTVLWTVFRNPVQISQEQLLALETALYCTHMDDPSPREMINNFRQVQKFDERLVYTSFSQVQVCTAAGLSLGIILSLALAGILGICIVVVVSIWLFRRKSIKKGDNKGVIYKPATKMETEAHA
Excerpt: as §4

hCA I = biological target: T4, hCA I (Homo sapiens, UniProt P00915); experiment: stopped-flow CO2 hydrase assay, hCA I; assay type: biochemical
T4 construct: made in house
T4 sequence (P00915 whole entry): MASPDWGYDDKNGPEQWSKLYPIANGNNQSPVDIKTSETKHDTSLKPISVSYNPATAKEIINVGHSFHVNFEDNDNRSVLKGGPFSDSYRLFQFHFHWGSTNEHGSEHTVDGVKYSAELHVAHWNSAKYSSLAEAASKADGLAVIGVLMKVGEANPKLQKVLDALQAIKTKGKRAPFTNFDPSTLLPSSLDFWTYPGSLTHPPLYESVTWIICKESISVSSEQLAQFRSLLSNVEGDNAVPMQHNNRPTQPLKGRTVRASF
Procedure: as §3

[1] = sulphonamides, inhibitor-enzyme incubation 15 min, mean ± SEM of three assays
[2] = sulphonamides, inhibitor-enzyme incubation 15 min
[3] = coumarins, inhibitor-enzyme incubation 6 h

Row | SMILES | Ki (hCA II; [1]) | Selectivity index (SI) I/IX (hCA IX) | Selectivity index (SI) II/IX (hCA IX) | Ki (hCA IX; [2]) | Selectivity index (SI) I/XII (hCA XII) | Selectivity index (SI) II/XII (hCA XII) | Ki (hCA XII; [2]) | Ki (hCA I; [1]) | Ki (hCA II; [3]) | Ki (hCA IX; [3]) | Ki (hCA XII; [3]) | Ki (hCA I; [3]) | ΔT1/2 Tel23 (Tel23) | ΔΔT1/2 Tel23 (Tel23) | ΔT1/2 Hairpin (Hairpin) | ΔT1/2 c-Kit1 (c-Kit1) | ΔΔT1/2 c-Kit1 (c-Kit1) | ΔT1/2 c-Myc (c-Myc) | ΔΔT1/2 c-Myc (c-Myc) | other results
1 | COc1ccc2cc3[n+](cc2c1OCCCCn1cc(COc2ccc(S(N)(=O)=O)cc2)nn1)CCc1cc2c(cc1-3)OCO2 [Compound 31, 10-Methoxy-9–(4-(4-((4-sulfamoylphenoxy)methyl)-1H-1,2,3-triazol-1-yl)butoxy)-5,6-dihydro-[1,3]dioxolo[4,5-g]isoquinolino[3,2-a]isoquinolin-7-ium hexafluorophosphate] | 0.0715 ± 0.0053 µM | 1308 | 102.1 | 0.00071 ± 4e-05 µM | 127.2 | 9.9 | 0.0072 ± 0.0005 µM | 0.916 ± 0.0579 µM |  |  |  |  | 8.0 °C | −1.5 °C | +0.2 °C | 15.5 °C | 2.5 °C | 13.0 °C | 1.0 °C | 
2 | COc1ccc2cc3[n+](cc2c1OCCCn1cc(CCOc2ccc4ccc(=O)oc4c2)nn1)CCc1cc2c(cc1-3)OCO2 [Compound 35, 10-Methoxy-9–(3-(4–(2-((2-oxo-2H-chromen-7-yl)oxy)ethyl)-1H-1,2,3-triazol-1-yl)propoxy)-5,6-dihydro-[1,3]dioxolo[4,5-g]isoquinolino[3,2-a]isoquinolin-7-ium hexafluorophosphate] |  | > 289.9 | > 289.9 |  | > 529.1 | > 529.1 |  |  | > 100 µM | 0.0345 ± 0.0024 µM | 0.0189 ± 0.0009 µM | > 100 µM | 8.0 °C | −1.5 °C | +2.0 °C | 18.5 °C | 5.5 °C | 18.5 °C | 6.5 °C | 
3 | COc1ccc2cc3[n+](cc2c1OCCCn1cc(CCCOc2ccc4ccc(=O)oc4c2)nn1)CCc1cc2c(cc1-3)OCO2 [Compound 36, 10-Methoxy-9–(3-(4–(3-((2-oxo-2H-chromen-7-yl)oxy)propyl)-1H-1,2,3-triazol-1-yl)propoxy)-5,6-dihydro-[1,3]dioxolo[4,5-g]isoquinolino[3,2-a]isoquinolin-7-ium hexafluorophosphate] |  | > 169.8 | > 169.8 |  | > 352.1 | > 352.1 |  |  | > 100 µM | 0.0589 ± 0.0039 µM | 0.0284 ± 0.0017 µM | > 100 µM | 12.5 °C | 3.0 °C | +0.5 °C | 17.0 °C | 4.0 °C | 15.0 °C | 3.0 °C | 
4 | COc1ccc2cc3[n+](cc2c1OCCCCn1cc(CCOc2ccc4ccc(=O)oc4c2)nn1)CCc1cc2c(cc1-3)OCO2 [Compound 38, 10-Methoxy-9–(4-(4–(2-((2-oxo-2H-chromen-7-yl)oxy)ethyl)-1H-1,2,3-triazol-1-yl)butoxy)-5,6-dihydro-[1,3]dioxolo[4,5-g]isoquinolino[3,2-a]isoquinolin-7-ium hexafluorophosphate] |  | > 332.2 | > 332.2 |  | > 598.8 | > 598.8 |  |  | > 100 µM | 0.0301 ± 0.0018 µM | 0.0167 ± 0.0012 µM | > 100 µM | 7.5 °C | −2.0 °C | -2.0 °C | 17.5 °C | 4.5 °C | 15.0 °C | 3.0 °C | 

Further lines, with some results ahead:

Row | Ki (hCA II; [1]) | Selectivity index (SI) I/IX (hCA IX) | Selectivity index (SI) II/IX (hCA IX) | Ki (hCA IX; [2]) | Selectivity index (SI) I/XII (hCA XII) | Selectivity index (SI) II/XII (hCA XII) | Ki (hCA XII; [2]) | Ki (hCA I; [1]) | Ki (hCA II; [3]) | Ki (hCA IX; [3]) | Ki (hCA XII; [3]) | Ki (hCA I; [3]) | SMILES | ΔT1/2 Tel23 (Tel23) | ΔΔT1/2 Tel23 (Tel23) | ΔT1/2 Hairpin (Hairpin) | ΔT1/2 c-Kit1 (c-Kit1) | ΔΔT1/2 c-Kit1 (c-Kit1) | ΔT1/2 c-Myc (c-Myc) | ΔΔT1/2 c-Myc (c-Myc) | other results
5 | 0.006 µM | 1446 | 9.2 | 0.00065 ± 5e-05 µM | 213.7 | 1.4 | 0.0044 µM | 0.94 ± 0.0521 µM |  |  |  |  | COc1ccc2cc3[n+](cc2c1OCCn1cc(COc2ccc(S(N)(=O)=O)cc2)nn1)CCc1cc2c(cc1-3)OCO2 [Compound 27, 10-Methoxy-9–(2-(4-((4-sulfamoylphenoxy)methyl)-1H-1,2,3-triazol-1-yl)ethoxy)-5,6-dihydro-[1,3]dioxolo[4,5-g]isoquinolino[3,2-a]isoquinolin-7-ium hexafluorophosphate] | 7.5 °C | −2.0 °C | -0.5 °C | 18.5 °C | 5.5 °C | 18.5 °C | 6.5 °C | 
6 | 0.0668 ± 0.0039 µM | 1194 | 91.5 | 0.00073 ± 4e-05 µM | 62.3 | 4.8 | 0.014 ± 0.001 µM | 0.872 ± 0.0559 µM |  |  |  |  | COc1ccc2cc3[n+](cc2c1OCCCn1cc(-c2ccc(S(N)(=O)=O)cc2)nn1)CCc1cc2c(cc1-3)OCO2 [Compound 28, 10-Methoxy-9–(3-(4–(4-sulfamoylphenyl)-1H-1,2,3-triazol-1-yl)propoxy)-5,6-dihydro-[1,3]dioxolo[4,5-g]isoquinolino[3,2-a]isoquinolin-7-ium hexafluorophosphate] | 6.0 °C | −3.5 °C | -2.0 °C | 16.5 °C | 3.5 °C |  | >13.0 °C | ΔΔT1/2 c-Myc (c-Myc; listed as S-3,0): > 13.0 °C
7 | 0.0411 ± 0.0027 µM | 406.5 | 76.1 | 0.00054 ± 3e-05 µM | 75.7 | 14.2 | 0.0029 ± 0.0001 µM | 0.219 ± 0.0162 µM |  |  |  |  | COc1ccc2cc3[n+](cc2c1OCCCCCn1cc(COc2ccc(S(N)(=O)=O)cc2)nn1)CCc1cc2c(cc1-3)OCO2 [Compound 33, 10-Methoxy-9-((5–(4-((4-sulfamoylphenoxy)methyl)-1H-1,2,3-triazol-1-yl)pentyl)oxy)-5,6-dihydro-[1,3]dioxolo[4,5-g]isoquinolino[3,2-a]isoquinolin-7-ium hexafluorophosphate] | 10.5 °C | 1.0 °C | +0.2 °C | 18.5 °C | 5.5 °C | 12.5 °C | 0.5 °C | 
8 | 0.0901 ± 0.0056 µM | 941.1 | 23.1 | 0.0039 ± 0.0002 µM | 148.0 | 3.6 | 0.0248 ± 0.0013 µM | 3.67 ± 0.022 µM |  |  |  |  | COc1ccc2cc3[n+](cc2c1OCc1cn(-c2cccc(S(N)(=O)=O)c2)nn1)CCc1cc2c(cc1-3)OCO2 [Compound 40, 10-Methoxy-9-((1–(3-sulfamoylphenyl)-1H-1,2,3-triazol-4-yl)methoxy)-5,6-dihydro-[1,3]dioxolo[4,5-g]isoquinolino[3,2-a]isoquinolin-7-ium hexafluorophosphate] | 5.5 °C | −4.0 °C | +0.2 °C | 16.0 °C | 3.0 °C |  | >13.0 °C | ΔΔT1/2 c-Myc (c-Myc; listed as S-1,0m): > 13.0 °C
